{
  "source": "paper PMC11904948",
  "about": "“Peptide‐Drug Conjugate for Therapeutic Reprogramming of Tumor‐Associated Macrophages in Breast Cancer” (Advanced Science, 2025)",
  "key": {"Solubility in water": {"assay": "Solubility in water", "format": "physicochemical", "conditions": "method not given", "description": "Verteporfin (V), is a photosensitizer and inhibitor of the activation of YAP.^[ [41] ^] […] Verteporfin, in its liposomal formulation Visudyne, is an approved drug for certain ophthalmological indications. In clinical trials for cancer therapy, Verteporfin is mostly used for photodynamic therapy (clinical trial identifiers: NCT03067051, NCT03033225, NCT04590664)."}, "orthotopic 4T1 tumors": {"tested_on": "orthotopic 4T1 tumors", "assay": "In vivo photodynamic therapy study in orthotopic 4T1", "parameters": "species or system Balb/c mice", "procedure": "Figure 5 In vitro and in vivo photodynamic therapy with MACTIDE‐V. A) Structure of MACTIDE‐V. B) MACTIDE‐V, CtrlPep‐V, and DOX were incubated with primary human macrophages (obtained from monocytes derived from human blood buffy coat) at 30 µM for 1 h at 37 °C, followed by 2 washes with media. Then, the groups shown in pink were irradiated with 10 J cm^−2 (irradiance: 170 mW cm^−2, spot diameter: 0.5 cm). […] For the irradiated groups, 4 h after administration of conjugates or PBS, the mice were irradiated with 100 J cm^−2; shown is primary tumor volume progression during treatment. Gray arrows indicate injection days. D) Bodyweight during the treatment as % of the initial one. E) Representative mIHC images of PBS, CtrlPep‐V, and MACTIDE‐V‐treated tumors, 20X magnification, scale bar = 100 µm, white triangles point to Foxp3^+ cells. F) CD8^+ T cells, CD4^+ T cells, and Treg density, n = 6 mice/group, with every dot representing the mean cell density of each tumor obtained from 20 images. G) CD8^+ T cells density in CK8^+‐dense tumor regions. n = 5 mice/group, with every dot representing the mean cell density of each tumor obtained from 20 images. Median ± interquartile range. One‐way ANOVA with multiple comparisons, ^* p ≤ 0.05, ^** p ≤ 0.01.\nPrompted by the consistent laser‐induced and preferential toxicity of MACTIDE‐V on IL‐4‐stimulated macrophages, we decided to evaluate its in vivo therapeutic effect on mice survival in the orthotopic 4T1 model. […] This prompted us to further investigate the effect of MACTIDE‐V (‐), which hereafter will be denoted simply as “MACTIDE‐V”. To obtain further information on the effect of MACTIDE‐V in this tumor model, we investigated T cell infiltration in treated tumors, using multiplex immunohistochemistry (mIHC), comparing MACTIDE‐V (‐) group to PBS and CtrlPep‐V (‐) groups.\nOrthotopic tumors were induced by injecting 5×10^4 4T1 cells in 50 µL of PBS subcutaneously into the 4th mammary fat pad of 8–12‐week‐old female Balb/c mice. When tumors reached ≈40 mm^3, mice were sorted into groups: MACTIDE‐V (+), MACTIDE‐V (‐), CtrlPep‐V (+), CtrlPep‐V (‐), MACTIDE (‐), and PBS (+). Tumors were measured using a digital caliper (Mitutoyo) and volume was calculated using (W^2 × L)/2 formula, where W is the width of a tumor and L is the length. Each group had six mice. The first intraperitoneal injection (30 nmol) was carried out on day 9 post‐tumor induction. 4 h post‐injection, the tumor area was shaved to lessen laser scattering and tumors were irradiated with 100 J cm^−2 using the NIR laser source for PDT described above. Each tumor was measured, and the spot size was adjusted every time, keeping the radiation dose always constant. Irradiation of the tumors was done in complete darkness under anesthesia. Mice recovered on a heating pad and eye drops were applied to avoid eye dryness. All mice, whether irradiated or not, were anesthetized to keep the handling conditions the same. Mouse bodyweights and tumor volumes were monitored every other day. The sacrifice of mice began on day 23 based on their tumor sizes (over 1500 mm^3) or cachexia. The final mice were sacrificed on day 36 post‐tumor induction. Tumor volume curves are shown until day 23 when mice elimination began, and the sample number became too small for statistical comparison. Survival was analyzed using GraphPad Prism to plot Kaplan–Meier survival curves and perform the Mantel–Cox test for statistical analysis. Tumors taken on similar days were analyzed using mIHC.\nThe staining of 4 µm‐thick formalin‐fixed paraffin‐embedded (FFPE) tissue sections for mIHC analysis was carried out using the tyramide signal amplification‐based Opal method (Akoya Biosciences) on a Leica BOND RX automated immunostainer (Leica Microsystems). For each staining cycle, FFPE slides were deparaffinized and subjected to heat‐induced epitope retrieval at 97 or 100 °C using BOND epitope retrieval solutions ER1 or ER2 (Leica Biosystems)."}, "orthotopic 4T1.2 tumors": {"tested_on": "orthotopic 4T1.2 tumors", "assay": "MACTIDE-V + anti-PD-1 combination therapy in orthotopic 4T1.2", "format": "in vivo, Balb/c mice", "procedure": "4T1.2 bearing mice were treated with 9 doses of CtrlPep‐V, MACTIDE‐V (1 mg Kg^−1 in Verteporfin per dose), or PBS i.p. every other day according to the scheme in (A). Anti‐PD‐1 injections started 16 days post‐tumor induction (three injections of 200 µg each). Mice were sacrificed on day 29, their tumor weights were analyzed (B), pulmonary metastases area quantified from H&E‐stained sections (C), and their tumors were analyzed with flow cytometry (D–H).\n5×10^5 4T1.2 cells in 50 µL of PBS were injected subcutaneously into 4th mammary fat pad. On day 8, mice were sorted into groups based on tumor volume (≈40 mm^3): PBS, anti‐PD‐1, MACTIDE‐V, MACTIDE‐V+anti‐PD‐1. Mice were treated i.p. every other day with 500 µL of MACTIDE‐V (30 nmol, 1mg kg^−1 Verteporfin) or PBS (10 injections in total). On day 18 post‐injection, MACTIDE‐V+anti‐PD‐1 and anti‐PD‐1 groups received recombiMAb anti‐mouse PD‐1 (Bioxcell, Catalog #CP151), a mouse IgG2a monoclonal antibody with the D265A mutation in the Fc fragment which renders it unable to bind to endogenous Fcγ receptors. Mice received three intraperitoneal injections of 200 µg of anti‐PD‐1 dissolved in 500 µL of PBS. […] Five tumors per group were analyzed by FC as described above. TAM/monocytes were defined as Ly6G^−CD11b^+/F4/80^+ population from the CD45^+ population.\nThe lungs of all mice were fixed in formalin and embedded in paraffin, and later sectioned and stained with H&E by the histology facility of Vall D´Hebron Research Institute (Barcelona, Spain). Five 10 µm‐sections spaced apart 1 mm were taken from the lungs of each mouse (n = 7 mice per group). Then, the slides were scanned, and the metastatic area divided by the total lung area was calculated for each mouse."}, "[1]": {"conditions": "non-irradiated, versus PBS and CtrlPep‐V (‐), n = 6 mice/group"}, "[2]": {"conditions": "tumor flow cytometry, five tumors per group"}},
  "data": [
    {"substance": "Vert‐Ahx‐G(CTKSIPPIC)SPGAK‐OH (disulfide) [MACTIDE‐V]", "values": [
      {"measurement": "solubilization of Verteporfin by conjugation", "setting": "Solubility in water", "result": "able to solubilize Verteporfin"},
      {"measurement": "mice survival", "setting": "orthotopic 4T1 tumors; Kaplan–Meier, Mantel–Cox test", "result": "no significant differences"},
      {"measurement": "primary tumor volume, non‐irradiated (‐)", "setting": "orthotopic 4T1 tumors; i.p. 30 nmol (1 mg Kg^−1 in Verteporfin), no laser, n = 6/group, significant respect to PBS", "result": "strongest tumor volume reduction"},
      {"measurement": "primary tumor growth, irradiated (+)", "setting": "orthotopic 4T1 tumors; i.p. 30 nmol, irradiated 100 J cm^−2 4 h after administration, n = 6/group, versus control groups, not statistically significant", "result": "slowed down the tumor growth"},
      {"measurement": "body weight, non‐irradiated (‐)", "setting": "orthotopic 4T1 tumors; i.p. 30 nmol, no laser, % of initial bodyweight", "result": "negligible effect on body weight"},
      {"measurement": "CD8^+ T cell density in CK8^+‐dense tumor regions (mIHC)", "setting": "orthotopic 4T1 tumors; non-irradiated, n = 5 mice/group", "result": "higher CD8^+ T cell density"},
      {"measurement": "CD8^+ T cell infiltration in tumors (mIHC)", "setting": "orthotopic 4T1 tumors; [1]", "result": "significantly higher infiltration of CD8^+ T cells"},
      {"measurement": "density of regulatory T cells (Tregs) in tumors (mIHC)", "setting": "orthotopic 4T1 tumors; [1]", "result": "no differences in the density of regulatory T cells"},
      {"measurement": "primary tumor mass", "setting": "orthotopic 4T1.2 tumors; MACTIDE-V 30 nmol i.p. every other day, anti-PD-1 three i.p. injections of 200 µg, sacrifice day 29", "result": "significantly reduced the primary tumor mass"},
      {"measurement": "pulmonary metastases", "setting": "orthotopic 4T1.2 tumors; metastatic area from H&E sections, n = 7 mice per group, compared with anti-PD-1", "result": "superior effect on reducing pulmonary metastases"},
      {"measurement": "B cell infiltration", "setting": "orthotopic 4T1.2 tumors; tumor flow cytometry", "result": "no differences in B cell infiltration"},
      {"measurement": "expression of Granzyme B (GrzB) in CD25^+PD‐1^+ CD8^+ T cells", "setting": "orthotopic 4T1.2 tumors; tumor flow cytometry", "result": "increased"},
      {"measurement": "expression of PD‐1 on CD8^+ T cells", "setting": "orthotopic 4T1.2 tumors; tumor flow cytometry", "result": "reduced"},
      {"measurement": "FOXP3^+PD‐1^+ population among CD4^+ T cells", "setting": "orthotopic 4T1.2 tumors; tumor flow cytometry, compared to the other experimental conditions", "result": "decreasing trend"},
      {"measurement": "CD206^+MHCII^+ population of TAM/monocytes", "setting": "orthotopic 4T1.2 tumors; [2]", "result": "highest increase"},
      {"measurement": "CD206^+MHCII^− population of TAM/monocytes", "setting": "orthotopic 4T1.2 tumors; [2]", "result": "highest decrease"},
      {"measurement": "CD86^+MHCII^+ population of TAM/monocytes", "setting": "orthotopic 4T1.2 tumors; tumor flow cytometry, n = 5", "result": "significantly increased"},
      {"measurement": "CD86^−MHCII^− population of TAM/monocytes", "setting": "orthotopic 4T1.2 tumors; tumor flow cytometry, n = 5", "result": "decreased"},
      {"measurement": "CD4^+ T cells, CD8^+ T cells and NK cells in tumor", "setting": "orthotopic 4T1.2 tumors; tumor flow cytometry, statistically significant only for NK cells", "result": "highest increase"}
    ]}
  ]
}
